According to ChEMBL document CHEMBL3132856, “Novel pyrazolo[1,5-a]pyridines as PI3K inhibitors: variation of the central linker group” (Medchemcomm, 2014):

How the values were obtained:
[1] = target: T1, Phosphatidylinositol 4,5-bisphosphate 3-kinase catalytic subunit delta isoform (Homo sapiens, UniProt O00329); test: Inhibition of PI3Kdelta (unknown origin)
T1 sequence (O00329 whole entry): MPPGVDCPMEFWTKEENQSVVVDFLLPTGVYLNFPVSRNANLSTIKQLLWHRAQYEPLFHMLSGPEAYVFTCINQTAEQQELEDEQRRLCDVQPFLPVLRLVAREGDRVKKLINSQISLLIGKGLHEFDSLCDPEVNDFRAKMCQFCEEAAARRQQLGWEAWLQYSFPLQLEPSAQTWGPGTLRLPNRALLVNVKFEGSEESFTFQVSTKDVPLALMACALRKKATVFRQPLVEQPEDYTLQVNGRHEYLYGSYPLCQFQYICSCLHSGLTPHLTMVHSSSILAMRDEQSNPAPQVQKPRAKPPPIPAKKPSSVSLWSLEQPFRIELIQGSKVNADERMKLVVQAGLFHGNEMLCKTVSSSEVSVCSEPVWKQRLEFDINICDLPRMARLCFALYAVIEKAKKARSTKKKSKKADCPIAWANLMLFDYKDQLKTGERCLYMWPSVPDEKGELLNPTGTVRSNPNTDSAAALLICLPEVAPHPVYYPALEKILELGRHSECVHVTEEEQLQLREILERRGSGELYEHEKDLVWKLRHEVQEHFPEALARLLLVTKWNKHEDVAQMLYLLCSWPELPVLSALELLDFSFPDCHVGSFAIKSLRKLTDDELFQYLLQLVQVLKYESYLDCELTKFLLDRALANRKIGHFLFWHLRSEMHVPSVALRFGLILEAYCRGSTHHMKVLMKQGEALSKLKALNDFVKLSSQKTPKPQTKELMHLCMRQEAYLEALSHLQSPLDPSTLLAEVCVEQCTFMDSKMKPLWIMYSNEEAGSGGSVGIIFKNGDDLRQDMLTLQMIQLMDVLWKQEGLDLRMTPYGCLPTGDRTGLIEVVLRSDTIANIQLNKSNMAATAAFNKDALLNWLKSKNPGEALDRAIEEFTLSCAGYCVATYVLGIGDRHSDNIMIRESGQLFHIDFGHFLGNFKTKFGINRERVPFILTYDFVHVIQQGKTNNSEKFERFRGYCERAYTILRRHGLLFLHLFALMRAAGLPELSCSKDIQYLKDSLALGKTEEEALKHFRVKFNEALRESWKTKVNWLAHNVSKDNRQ

[2] = target: Phosphatidylinositol 4,5-bisphosphate 3-kinase catalytic subunit beta isoform (Homo sapiens, UniProt P42338); test: Inhibition of PI3Kbeta (unknown origin)
Phosphatidylinositol 4,5-bisphosphate 3-kinase catalytic subunit beta isoform, sequence (P42338 whole entry, canonical isoform): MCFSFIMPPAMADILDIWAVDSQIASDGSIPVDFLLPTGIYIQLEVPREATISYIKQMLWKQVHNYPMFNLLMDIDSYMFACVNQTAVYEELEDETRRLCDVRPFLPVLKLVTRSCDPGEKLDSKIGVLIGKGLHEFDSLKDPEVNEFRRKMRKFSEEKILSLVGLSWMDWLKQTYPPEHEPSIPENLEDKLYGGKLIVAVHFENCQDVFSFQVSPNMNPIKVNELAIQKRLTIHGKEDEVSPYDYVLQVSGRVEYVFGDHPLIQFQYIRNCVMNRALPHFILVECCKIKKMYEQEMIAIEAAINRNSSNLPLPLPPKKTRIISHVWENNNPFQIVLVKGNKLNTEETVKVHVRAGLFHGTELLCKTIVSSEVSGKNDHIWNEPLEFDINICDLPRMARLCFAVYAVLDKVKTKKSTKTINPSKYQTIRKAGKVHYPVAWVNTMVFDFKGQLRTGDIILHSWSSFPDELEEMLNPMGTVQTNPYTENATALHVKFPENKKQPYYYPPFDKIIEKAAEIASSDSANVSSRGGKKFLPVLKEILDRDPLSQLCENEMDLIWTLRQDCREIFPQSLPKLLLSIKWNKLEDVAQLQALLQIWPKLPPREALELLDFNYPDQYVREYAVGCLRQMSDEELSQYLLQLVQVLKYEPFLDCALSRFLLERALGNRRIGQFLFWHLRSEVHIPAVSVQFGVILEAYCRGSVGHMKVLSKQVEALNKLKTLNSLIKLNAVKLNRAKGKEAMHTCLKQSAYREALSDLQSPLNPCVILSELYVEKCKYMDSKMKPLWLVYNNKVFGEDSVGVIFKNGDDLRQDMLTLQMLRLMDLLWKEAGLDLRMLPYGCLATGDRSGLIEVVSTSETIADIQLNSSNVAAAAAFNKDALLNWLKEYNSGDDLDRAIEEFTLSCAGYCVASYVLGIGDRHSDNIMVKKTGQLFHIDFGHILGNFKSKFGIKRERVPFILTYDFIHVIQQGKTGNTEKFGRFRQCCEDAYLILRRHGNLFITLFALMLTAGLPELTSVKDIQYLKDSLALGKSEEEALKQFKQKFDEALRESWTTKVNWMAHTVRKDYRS

[3] = target: Phosphatidylinositol 4,5-bisphosphate 3-kinase catalytic subunit alpha isoform (Homo sapiens, UniProt P42336); test: Inhibition of PI3Kalpha (unknown origin)
Phosphatidylinositol 4,5-bisphosphate 3-kinase catalytic subunit alpha isoform, sequence (P42336 whole entry, canonical isoform): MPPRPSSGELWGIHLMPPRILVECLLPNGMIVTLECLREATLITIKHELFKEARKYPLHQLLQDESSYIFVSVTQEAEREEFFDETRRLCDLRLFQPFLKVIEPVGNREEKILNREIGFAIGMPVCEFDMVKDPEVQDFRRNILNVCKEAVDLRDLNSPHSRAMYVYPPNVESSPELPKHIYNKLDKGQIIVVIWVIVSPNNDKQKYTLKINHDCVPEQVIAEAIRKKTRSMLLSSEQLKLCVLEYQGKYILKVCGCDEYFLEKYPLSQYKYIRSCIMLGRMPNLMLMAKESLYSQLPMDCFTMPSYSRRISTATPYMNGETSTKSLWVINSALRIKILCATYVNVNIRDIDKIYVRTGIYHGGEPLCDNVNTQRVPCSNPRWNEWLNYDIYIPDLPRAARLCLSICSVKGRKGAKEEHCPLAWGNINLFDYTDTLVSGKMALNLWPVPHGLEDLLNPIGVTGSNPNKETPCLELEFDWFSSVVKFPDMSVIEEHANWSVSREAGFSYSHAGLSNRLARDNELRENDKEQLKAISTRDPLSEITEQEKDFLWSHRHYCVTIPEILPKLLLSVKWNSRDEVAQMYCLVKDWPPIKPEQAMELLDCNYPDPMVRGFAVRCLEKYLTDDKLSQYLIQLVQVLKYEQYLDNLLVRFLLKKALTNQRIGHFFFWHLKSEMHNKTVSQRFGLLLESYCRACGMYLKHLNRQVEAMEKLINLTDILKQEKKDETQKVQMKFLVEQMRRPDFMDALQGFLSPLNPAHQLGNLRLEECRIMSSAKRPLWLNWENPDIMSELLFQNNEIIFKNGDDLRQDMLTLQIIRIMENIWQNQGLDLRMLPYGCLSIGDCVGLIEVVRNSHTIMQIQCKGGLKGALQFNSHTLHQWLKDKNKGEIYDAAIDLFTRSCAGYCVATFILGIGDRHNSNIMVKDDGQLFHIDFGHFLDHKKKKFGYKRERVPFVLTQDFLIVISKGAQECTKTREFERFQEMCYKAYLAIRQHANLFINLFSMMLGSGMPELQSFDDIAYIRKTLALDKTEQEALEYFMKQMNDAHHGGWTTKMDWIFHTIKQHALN

[4] = organism: Homo sapiens; test: Selectivity ratio of IC50 for PI3Kbeta (unknown origin) to IC50 for PI3Kalpha (unknown origin)
[5] = organism: Homo sapiens; test: Selectivity ratio of IC50 for PI3Kdelta (unknown origin) to IC50 for PI3Kalpha (unknown origin)
[6] = organism: Homo sapiens; test: Selectivity ratio of IC50 for PI3Kalpha (unknown origin) to IC50 for PI3Kdelta (unknown origin)

Cc1ccc([N+](=O)[O-])cc1Nc1nc(-c2cnn3ccc(Br)cc23)cs1
IC50 [1]: > 1000 nM
IC50 [2]: > 1000 nM
IC50 [3]: > 1000 nM

Cc1ccc([N+](=O)[O-])cc1S(=O)(=O)N[C@@H]1CCCN(Cc2cnn3ccc(C#N)cc23)C1
IC50 [1]: > 1000 nM
IC50 [2]: > 1000 nM
IC50 [3]: > 1000 nM

Cc1ccc([N+](=O)[O-])cc1C(=O)NC1CCN(Cc2cnn3ccc(C#N)cc23)CC1
IC50 [1]: > 1000 nM
IC50 [2]: > 1000 nM
IC50 [3]: > 1000 nM

N#Cc1cc(S(=O)(=O)c2nc(-c3cnn4ccc(Br)cc34)cs2)ccc1F
IC50 [1]: 150 nM
IC50 [2]: > 1000 nM
IC50 [3]: 170 nM

CN(C)CCN(C)c1ccc(C#N)cc1S(=O)(=O)c1nc(-c2cnn3ccc(Br)cc23)cs1
IC50 [1]: 2000 nM
IC50 [2]: 3560 nM
IC50 [3]: 370 nM

Cc1ccc([N+](=O)[O-])cc1CSc1nc(-c2cnn3ccc(Br)cc23)cs1
IC50 [1]: > 1000 nM
IC50 [2]: > 1000 nM
IC50 [3]: > 1000 nM

Cc1ccccc1[S+]([O-])c1nc(-c2cnn3ccc(Br)cc23)cs1 (centres undefined)
IC50 [1]: > 1000 nM
IC50 [2]: > 1000 nM
IC50 [3]: 1280 nM

Cc1ccc([N+](=O)[O-])cc1S(=O)(=O)N[C@H]1CCCN(Cc2cnn3ccc(C#N)cc23)C1
IC50 [1]: > 1000 nM
IC50 [2]: > 1000 nM
IC50 [3]: > 1000 nM

Cc1ccc([N+](=O)[O-])cc1S(=O)(=O)N[C@H]1CCN(Cc2cnn3ccc(C#N)cc23)C1
IC50 [1]: > 1000 nM
IC50 [2]: > 1000 nM
IC50 [3]: > 1000 nM

Cc1ccc([N+](=O)[O-])cc1S(=O)(=O)NC1CCN(Cc2cnn3ccc(C#N)cc23)CC1
IC50 [1]: > 1000 nM
IC50 [2]: > 1000 nM
IC50 [3]: > 1000 nM

Cc1ccc([N+](=O)[O-])cc1CS(=O)(=O)c1nc(-c2cnn3ccc(Br)cc23)cs1
IC50 [1]: > 1000 nM
IC50 [2]: > 1000 nM
IC50 [3]: > 1000 nM

Cc1ccc([N+](=O)[O-])cc1S(=O)(=O)N1CCC(c2cnn3ccc(Br)cc23)CC1
IC50 [1]: > 1000 nM
IC50 [2]: > 1000 nM
IC50 [3]: > 1000 nM

O=[N+]([O-])c1cccc([S+]([O-])c2nc(-c3cnn4ccc(Br)cc34)cs2)c1 (centres undefined)
Ratio IC50 [4]: < 10
IC50 [1]: 320 nM
IC50 [2]: 4420 nM
IC50 [3]: 740 nM

Cc1ccc([N+](=O)[O-])cc1C(=O)N[C@@H]1CCN(Cc2cnn3ccc(C#N)cc23)C1
IC50 [1]: > 1000 nM
IC50 [2]: > 1000 nM
IC50 [3]: > 1000 nM

Cc1ccc([N+](=O)[O-])cc1C(=O)N1CCC(c2cnn3ccc(Br)cc23)CC1
IC50 [1]: > 1000 nM
IC50 [2]: > 1000 nM
IC50 [3]: > 1000 nM

Cc1ccc([N+](=O)[O-])cc1S(=O)(=O)N1CCN(Cc2cnn3ccc(C#N)cc23)CC1
IC50 [1]: > 1000 nM
IC50 [2]: > 1000 nM
IC50 [3]: > 1000 nM

Cc1ccc([N+](=O)[O-])cc1S(=O)(=O)Nc1nc(-c2cnn3ccc(Br)cc23)cs1
IC50 [1]: > 1000 nM
IC50 [2]: > 1000 nM
IC50 [3]: 1260 nM

N#Cc1ccc(F)c(S(=O)(=O)c2nc(-c3cnn4ccc(Br)cc34)cs2)c1
IC50 [1]: 440 nM
IC50 [2]: > 1000 nM
IC50 [3]: 720 nM

Cc1ccc([N+](=O)[O-])cc1S(=O)(=O)/N=c1/scc(-c2cnn3ccc(Br)cc23)n1C
IC50 [1]: > 1000 nM
IC50 [2]: > 1000 nM
IC50 [3]: > 1000 nM

Cc1ccc([N+](=O)[O-])cc1S(=O)(=O)N[C@@H]1CCN(Cc2cnn3ccc(C#N)cc23)C1
IC50 [1]: > 1000 nM
IC50 [2]: > 1000 nM
IC50 [3]: > 1000 nM

Cc1ccc([N+](=O)[O-])cc1S(=O)(=O)N1CCCN(Cc2cnn3ccc(C#N)cc23)CC1
IC50 [1]: > 1000 nM
IC50 [2]: > 1000 nM
IC50 [3]: > 1000 nM

CN(C)CCN(C)c1ccc(C#N)cc1[S+]([O-])c1nc(-c2cnn3ccc(Br)cc23)cs1 (centres undefined)
Ratio IC50 [5]: 5
Ratio IC50 [6]: 16
IC50 [1]: 250 nM
IC50 [2]: 4340 nM
IC50 [3]: 4030 nM

Cc1ccc([N+](=O)[O-])cc1S(=O)(=O)NC1CN(Cc2cnn3ccc(C#N)cc23)C1
IC50 [1]: > 1000 nM
IC50 [2]: > 1000 nM
IC50 [3]: > 1000 nM

Cc1ccc([N+](=O)[O-])cc1S(=O)(=O)N1CCCC(c2cnn3ccc(Br)cc23)C1 (centres undefined)
IC50 [1]: > 1000 nM
IC50 [2]: > 1000 nM
IC50 [3]: 590 nM

O=[N+]([O-])c1cccc(Sc2nc(-c3cnn4ccc(Br)cc34)cs2)c1
IC50 [1]: > 1000 nM
IC50 [2]: > 1000 nM
IC50 [3]: > 1000 nM

Cc1ccc([N+](=O)[O-])cc1S(=O)(=O)N(C)c1nc(-c2cnn3ccc(Br)cc23)cs1
IC50 [1]: 1550 nM
IC50 [2]: > 1000 nM
IC50 [3]: > 1000 nM

Cc1ccc([N+](=O)[O-])cc1C(=O)N[C@H]1CCN(Cc2cnn3ccc(C#N)cc23)C1
IC50 [1]: > 1000 nM
IC50 [2]: > 1000 nM
IC50 [3]: > 1000 nM

O=[N+]([O-])c1cccc(S(=O)(=O)c2nc(-c3cnn4ccc(Br)cc34)cs2)c1
Ratio IC50 [4]: < 10
IC50 [3]: 630 nM

N#Cc1cc(S(=O)(=O)c2nc(-c3cnn4ccc(Br)cc34)cs2)ccc1NCCN1CCOCC1
Ratio IC50 [6]: 9
IC50 [1]: 240 nM
IC50 [2]: > 1000 nM
IC50 [3]: 2130 nM

Cc1ccc([N+](=O)[O-])cc1C(=O)N1CCN(Cc2cnn3ccc(C#N)cc23)CC1
IC50 [1]: > 1000 nM
IC50 [2]: > 1000 nM
IC50 [3]: > 1000 nM

Cc1ccc([N+](=O)[O-])cc1S(=O)(=O)C/C=C/c1cnn2ccc(Br)cc12
IC50 [1]: 3350 nM
IC50 [2]: > 1000 nM
IC50 [3]: 140 nM

Cc1ccc([N+](=O)[O-])cc1S(=O)(=O)Cc1nc(-c2cnn3ccc(Br)cc23)cs1
IC50 [1]: 90 nM
IC50 [2]: 140 nM
IC50 [3]: 240 nM

Cc1ccc([N+](=O)[O-])cc1C(=O)N[C@@H]1CCCN(Cc2cnn3ccc(C#N)cc23)C1
IC50 [1]: > 1000 nM
IC50 [2]: > 1000 nM
IC50 [3]: > 1000 nM

Cc1ccc([N+](=O)[O-])cc1C(=O)N[C@H]1CCCN(Cc2cnn3ccc(C#N)cc23)C1
IC50 [1]: > 1000 nM
IC50 [2]: > 1000 nM
IC50 [3]: > 1000 nM

Cc1ccc([N+](=O)[O-])cc1C(=O)NC1CN(Cc2cnn3ccc(C#N)cc23)C1
IC50 [1]: > 1000 nM
IC50 [2]: > 1000 nM
IC50 [3]: > 1000 nM

Cc1ccc([N+](=O)[O-])cc1Cc1nc(-c2cnn3ccc(Br)cc23)cs1
IC50 [1]: > 1000 nM
IC50 [2]: > 1000 nM
IC50 [3]: > 1000 nM

Cc1ccc([N+](=O)[O-])cc1S(=O)(=O)N1CCC(c2cnn3ccc(Br)cc23)C1 (centres undefined)
IC50 [1]: > 1000 nM
IC50 [2]: > 1000 nM
IC50 [3]: 3000 nM

Cc1ccc([N+](=O)[O-])cc1-c1nc(-c2cnn3ccc(Br)cc23)cs1
IC50 [1]: > 1000 nM
IC50 [2]: > 1000 nM
IC50 [3]: > 1000 nM

CN(C)CCN(C)c1ccc(S(=O)(=O)c2nc(-c3cnn4ccc(Br)cc34)cs2)cc1C#N
Ratio IC50 [6]: 4
IC50 [1]: 640 nM
IC50 [2]: > 1000 nM
IC50 [3]: 2470 nM

N#Cc1ccc(F)c([S+]([O-])c2nc(-c3cnn4ccc(Br)cc34)cs2)c1 (centres undefined)
IC50 [1]: 200 nM
IC50 [2]: > 1000 nM
IC50 [3]: 300 nM
